From patent US6169181A, “Compounds useful to treat retroviral infections” (Pharmacia & Upjohn Company, priority 1998, dated 2001)
Like-named read-outs stand apart in the source and are kept apart here.

Assays:
HIV-1 protease [1] = molecular target: T1, HIV-1 protease (Human immunodeficiency virus type 1 group M subtype B, UniProt P04585); assay: biochemical
Method: The HIV protease screening assay is based on fluorescently labeled substrate which can be resolved from nonlabeled cleavage product using special beads coated with streptavidin. The substrate is biotinylated at the amino terminal arginine and fluorescently labeled with fluorescein isothiocynate (FITC) at the carboxyl terminal lysine. […] Substrate ([…] of 0.2 μM), sample (10 μl of desired concentraion), and enzyme (10 μl of 0.1 μM) are added to a 96 well pandex plate. The assay is run in 0.1 M sodium acetate buffer at pH 5.5 in the presence of 1.0 M sodium chloride and 0.05% NP-40 with incubated in the dark for one hour at room temperature. Strepavidin coated polystyrene beads {40 μl of 0.1% (w/v)} are added and the plate is incubated in the dark for an additional half hour. The labeled cleavage product is separated from the unreacted substrate via filtration and is read on the Idexx screen machine. The data are analyzed by appropriate computer algorithms to ascertain percent inhibition values.
Determination of Ki values utilizes the same materials and equipment employed for percent inhibition studies. Two-fold serial dilutions are made for a given inhibitor from 2, 3 or 4 starting concentrations with a total of 24, 36 or 48 individual inhibitor concentrations. These dilutions are performed utilizing the BioMek robotics system. The assay consists of 10 μL of 40 nM HIV-1 protease, 10 μL of the various inhibitor concentrations, and 20 μL of 200 μM substrate (40 μL total). The reaction is allowed to proceed for 90 min at room temperature, terminated with 40 μL of avidin beads and processed (supra vide). An inhibitor with a known K; is run in parallel to verify the validity of the assay. The data is processed utilizing a computer program employing a nonlinear least square analysis of the data to generate the Ki values.

HIV-1 protease [2] = molecular target: T1, HIV-1 protease; assay: biochemical; settings: for PROTEASE % INHIB.: Table II, enzyme HIV-1
Method: The HIV protease screening assay is based on fluorescently labeled substrate which can be resolved from nonlabeled cleavage product using special beads coated with streptavidin. The substrate is biotinylated at the amino terminal arginine and fluorescently labeled with fluorescein isothiocynate (FITC) at the carboxyl terminal lysine. This assay has been employed to detect novel, nonpeptidic inhibitors of HIV-1 protease. Substrate (20 μM of 0.2 μM), sample (10 μl of desired concentraion), and enzyme (10 μl of 0.1 μM) are added to a 96 well pandex plate. The assay is run in 0.1 M sodium acetate buffer at pH 5.5 in the presence of 1.0 M sodium chloride and 0.05% NP-40 with incubated in the dark for one hour at room temperature. Strepavidin coated polystyrene beads {40 μl of 0.1% (w/v)} are added and the plate is incubated in the dark for an additional half hour. The labeled cleavage product is separated from the unreacted substrate via filtration and is read on the Idexx screen machine. The data are analyzed by appropriate computer algorithms to ascertain percent inhibition values.

[3] = Table II, enzyme HIV-1, read-out: FITC KI
[4] = Table I, read-out: HIV Protease FITC Assay Ki
[5] = Table I, Dose 0.123 μM, read-out: Protease % Inhib
[6] = Table I, Dose 0.370 μM, read-out: Protease % Inhib
[7] = Table I, Dose 1.100 μM, read-out: Protease % Inhib
[8] = Table I, Dose 3.300 μM, read-out: Protease % Inhib
[9] = Table I, Dose 10.000 μM, read-out: Protease % Inhib
[10] = Table I, Dose 30.000 μM, read-out: Protease % Inhib

Row | Structure (SMILES) | Ki (HIV-1 protease [1]; [4]) | inhibition at 0.123 µM (HIV-1 protease [2]; [5]) | inhibition at 0.37 µM (HIV-1 protease [2]; [6]) | inhibition at 1.1 µM (HIV-1 protease [2]; [7]) | inhibition at 3.3 µM (HIV-1 protease [2]; [8]) | inhibition at 10 µM (HIV-1 protease [2]; [9]) | inhibition at 30 µM (HIV-1 protease [2]; [10]) | also measured
1 | CC(C)(C)C(C1=C(O)CC(CCc2ccccc2)(CCc2ccccc2)OC1=O)c1cccc(NS(=O)(=O)c2ccc(N)cn2)c1 (single isomer, unassigned) [Example 355, N-[3-{1(R or S)-(4-Hydroxy-5,6-dihydro-2-oxo-6,6-bis(2-phenylethyl)-2H-pyran-3-yl)-2,2-dimethylpropyl}phenyl]-5-aminopyridine-2-sulfonamide] | – | – | – | – | – | – | – | Ki (HIV-1 protease [1]; [3]): 700 nM; PROTEASE % INHIB. (HIV-1 protease [2]; DOSE 0.123 (unit not given)): < 10%; PROTEASE % INHIB. (HIV-1 protease [2]; DOSE 0.370 (unit not given)): < 10%; PROTEASE % INHIB. (HIV-1 protease [2]; DOSE 1.100 (unit not given)): < 10%; PROTEASE % INHIB. (HIV-1 protease [2]; DOSE 3.300 (unit not given)): 20.72%; PROTEASE % INHIB. (HIV-1 protease [2]; DOSE 10.000 (unit not given)): 46.66%; PROTEASE % INHIB. (HIV-1 protease [2]; DOSE 30.000 (unit not given)): 67.82%
2 | CCCC1(CCc2ccccc2)CC(O)=C(C(CC)c2cccc(NS(=O)(=O)c3ccc(F)cc3)c2)C(=O)O1 (centres unmarked) [Example 93A, 4-Fluoro-N-[3-[1-(4-hydroxy-2-oxo-6-phenethyl-6-propyl-5,6-dihydro-2H-pyran-3-yl)-propyl]-phenyl]-benzenesulfonamide] | – | – | – | – | – | – | – | Ki (HIV-1 protease [1]; read-out: HIV Protease FITC Assay Ki): 6.06 nM; inhibition at 0.123 µM (HIV-1 protease [2]; read-out: Protease % Inhib): 59.5%; inhibition at 0.37 µM (HIV-1 protease [2]; read-out: Protease % Inhib): 90.4%; inhibition at 1.1 µM (HIV-1 protease [2]; read-out: Protease % Inhib): 104%; inhibition at 3.3 µM (HIV-1 protease [2]; read-out: Protease % Inhib): 109%; inhibition at 10 µM (HIV-1 protease [2]; read-out: Protease % Inhib): 109%; inhibition at 30 µM (HIV-1 protease [2]; read-out: Protease % Inhib): 96.6%
3 | CCCC1(CCC)CC(O)=C(C(c2cccc(NS(=O)(=O)c3cccc4cccnc34)c2)C2CC2)C(=O)O1 (centres unmarked) [Example 49] | 0.96 nM | 111% | 120% | 120% | 106% | 108% | 112% | –
4 | CCC(Cc1ccccc1)c1cc(O)c(C(c2cccc(NS(=O)(=O)c3cn(C)cn3)c2)C2CC2)c(=O)o1 (centres unmarked) [Example 136, N-(3-{Cyclopropyl-[6-(1-ethylphenethyl)-4-hydroxy-2-oxo-2H-pyran-3-yl]-methyl}-phenyl)-1-methyl-1H-imidazole-4-sulfonamide] | 1.32 nM | 71.7% | 85.7% | 99% | 101% | 102% | 102% | –
5 | CC(C)CC(c1cccc(NS(=O)(=O)c2cn(C)cn2)c1)c1c(O)c2c(oc1=O)CCCCCC2 (single isomer, unassigned) [Example 9, (R or S)-N-[3-1-(5,6,7,8,9,10-Hexahydro-4-hydroxy-2-oxo-2H-cycloocta[b]pyran-3-yl)-3-methylbutyl]phenyl]-1-methyl-1H-imidazole-4-sulfonamide] | 0.42 nM | 99.1% | 104% | 105% | 105% | 107% | 108% | –
6 | CCCC1(CCC)CC(O)=C(C(c2cccc(NS(=O)(=O)c3cn(C)cn3)c2)C2CC2)C(=O)O1 (centres unmarked) [Example 48] | 0.52 nM | 111% | 104% | 110% | 89.3% | 111% | 105% | –
7 | CC(C)(C)C(C1=C(O)CC(CCC2CC2)(CCC2CC2)OC1=O)c1cccc(NS(=O)(=O)c2ccc(C#N)cn2)c1 (centres unmarked) [Example 265, N-[3-(1-[6,6-Bis-(2-cyclopropyl-ethyl)-5,6-dihydro-4-hydroxy-2-oxo-2H-pyran-3-yl]-2,2-dimethyl-propyl)phenyl]-5-cyano-2-pyridinesulfonamide] | 1 nM | 33.2% | 56.3% | 57.8% | 63.7% | 80.3% | 85.6% | –
8 | CCC(CCBr)c1cc(O)c(C(c2cccc(NS(=O)(=O)c3cn(C)cn3)c2)C2CC2)c(=O)o1 (centres unmarked) [Example 108, N-(3-{[6-(3-Bromo-1-ethyl-propyl)-4-hydroxy-2-oxo-2H-pyran-3-yl]-cyclopropyl-methyl}-phenyl)-1-methyl-1H-imidazole-4-sulfonamide] | 0.16 nM | 103% | 102% | 102% | – | 108% | 106% | inhibition at 3.39 µM (HIV-1 protease [2]; Table I, Dose 3.390 μM, read-out: Protease % Inhib): 102%
9 | Cn1ccnc1S(=O)(=O)Nc1cccc(C(c2c(O)cc(C(CC3CC3)CC3CC3)oc2=O)C2CC2)c1 (centres unmarked) [Example 100, N-(3-{Cyclopropyl-[6-(2-cyclopropyl-1-cyclopropylmethyl-ethyl)-4-hydroxy-2-oxo-2H-pyran-3-yl]-methyl}-phenyl)-1-methyl-1H-imidazole-2-sulfonamide] | 0.73 nM | 103% | 101% | 91% | 96.5% | – | 101% | inhibition at 100 µM (HIV-1 protease [2]; Table I, Dose 100.000 μM, read-out: Protease % Inhib): 101%
10 | Cn1ccnc1S(=O)(=O)Cc1cccc(C(c2c(O)c3c(oc2=O)CCCCCC3)C2CC2)c1 (centres unmarked) [Example 15, 3-[cyclopropyl[3-[(2-(1-methylimidazoyl)sulfonyl)methyl]phenyl]methyl]-5,6,7,8,9,10-hexahydro-4-hydroxy-2H-cycloocta[b]pyran-2-one] | 2.8 nM | 77.6% | 88.5% | 92.4% | 94% | 95.8% | 99.2% | –
11 | CCCC1(CCc2ccc(F)cc2)CC(O)=C(C(c2cccc(NS(=O)(=O)c3ccc(C#N)cc3)c2)C(C)(C)C)C(=O)O1 (centres unmarked) [Example 328, N-[3-{1-(4-Hydroxy-5,6-dihydro-2-oxo-6-(2-(4-fluorophenyl)ethyl)-6-propyl-2H-pyran-3-yl)-2,2-dimethylpropyl}phenyl]-4-cyanobenzenesulfonamide] | – | – | – | – | – | – | – | Ki (HIV-1 protease [1]; [3]): 22 nM; PROTEASE % INHIB. (HIV-1 protease [2]; DOSE 0.123 (unit not given)): 27.81%; PROTEASE % INHIB. (HIV-1 protease [2]; DOSE 0.370 (unit not given)): 79.47%; PROTEASE % INHIB. (HIV-1 protease [2]; DOSE 1.100 (unit not given)): 95.45%; PROTEASE % INHIB. (HIV-1 protease [2]; DOSE 3.300 (unit not given)): 96.77%; PROTEASE % INHIB. (HIV-1 protease [2]; DOSE 10.000 (unit not given)): 96.78%; PROTEASE % INHIB. (HIV-1 protease [2]; DOSE 30.000 (unit not given)): 92.17%
12 | COCCOCCOCCOc1ccc2c(O)c(C(c3cccc(NS(=O)(=O)c4cn(C)cn4)c3)C3CC3)c(=O)oc2c1 (centres unmarked) [Example 151, N-(3-{Cyclopropyl-[7-(2-(2-(2-methoxyethoxy)-ethoxy)ethoxy)-4-hydroxycoumarin-3-yl]-methyl}-phenyl)-1-methyl-1H-imidazole-4-sulfonamide] | – | – | – | – | – | – | – | Ki (HIV-1 protease [1]; HIV Protease FITC Assay Ki): 0.36 nM; inhibition at 0.123 µM (HIV-1 protease [2]; read-out: Protease % Inhib): 111%; inhibition at 0.37 µM (HIV-1 protease [2]; read-out: Protease % Inhib): 115%; inhibition at 1.1 µM (HIV-1 protease [2]; read-out: Protease % Inhib): 118%; inhibition at 3.3 µM (HIV-1 protease [2]; read-out: Protease % Inhib): 119%; inhibition at 10 µM (HIV-1 protease [2]; read-out: Protease % Inhib): 116%; inhibition at 30 µM (HIV-1 protease [2]; read-out: Protease % Inhib): 115%
13 | CCC[C@@]1(CCc2ccc(F)cc2)CC(O)=C([C@H](c2cccc(NS(=O)(=O)c3cn(C)cn3)c2)C(C)(C)C)C(=O)O1 (single isomer, unassigned) [Example 351, N-[3-{1(S or R)-(4-Hydroxy-5,6-dihydro-2-oxo-6(R or S)-(2-(4-fluorophenyl)ethyl)-6-propyl-2H-pyran-3-yl)-2,2-dimethyl-propyl}phenyl]-1-methyl-1H-imidazole-4-sulfonamide] | – | – | – | – | – | – | – | Ki (HIV-1 protease [1]; [3]): 558 nM; PROTEASE % INHIB. (HIV-1 protease [2]; DOSE 0.123 (unit not given)): < 10%; PROTEASE % INHIB. (HIV-1 protease [2]; DOSE 0.370 (unit not given)): < 10%; PROTEASE % INHIB. (HIV-1 protease [2]; DOSE 1.100 (unit not given)): 25.4%; PROTEASE % INHIB. (HIV-1 protease [2]; DOSE 3.300 (unit not given)): 55.11%; PROTEASE % INHIB. (HIV-1 protease [2]; DOSE 10.000 (unit not given)): 78.53%; PROTEASE % INHIB. (HIV-1 protease [2]; DOSE 30.000 (unit not given)): 90.55%
14 | CCCC1(CCc2ccccc2)CC(O)=C(C(c2cccc(NS(=O)(=O)c3ccc(C(F)(F)F)cn3)c2)C(C)(C)C)C(=O)O1 (centres unmarked) [Example 293, 5-Trifluoromethyl-N-[3-[1-[5,6-dihydro-4-hydroxy-2-oxo-6-(2-phenethyl)-6-n-propyl-2H-pyran-3-yl]-2,2-dimethylpropyl]-phenyl]-2-pyridinesulfonamide] | – | – | – | – | – | – | – | Ki (HIV-1 protease [1]; [3]): 4.3 nM; PROTEASE % INHIB. (HIV-1 protease [2]; DOSE 0.123 (unit not given)): 53.45%; PROTEASE % INHIB. (HIV-1 protease [2]; DOSE 0.370 (unit not given)): 77.51%; PROTEASE % INHIB. (HIV-1 protease [2]; DOSE 1.100 (unit not given)): 94.18%; PROTEASE % INHIB. (HIV-1 protease [2]; DOSE 3.300 (unit not given)): 103.03%; PROTEASE % INHIB. (HIV-1 protease [2]; DOSE 10.000 (unit not given)): 97.41%; PROTEASE % INHIB. (HIV-1 protease [2]; DOSE 30.000 (unit not given)): 92.01%
